Results: patent US12226412B2, “Heteroaryl-ketone fused azadecalin glucocorticoid receptor modulators” (Corcept Therapeutics, Inc., priority 2012, dated 2025)
Read-outs that look alike come from different tables or passages of the source.

Key:
[1] = target: T1, human recombinant GR (Homo sapiens, UniProt P04150); assay: Human glucocorticoid receptor (GR) fluorescence polarisation (FP) binding assay
T1 construct: purchased PanVera P2812
T1 sequence (P04150 1-777): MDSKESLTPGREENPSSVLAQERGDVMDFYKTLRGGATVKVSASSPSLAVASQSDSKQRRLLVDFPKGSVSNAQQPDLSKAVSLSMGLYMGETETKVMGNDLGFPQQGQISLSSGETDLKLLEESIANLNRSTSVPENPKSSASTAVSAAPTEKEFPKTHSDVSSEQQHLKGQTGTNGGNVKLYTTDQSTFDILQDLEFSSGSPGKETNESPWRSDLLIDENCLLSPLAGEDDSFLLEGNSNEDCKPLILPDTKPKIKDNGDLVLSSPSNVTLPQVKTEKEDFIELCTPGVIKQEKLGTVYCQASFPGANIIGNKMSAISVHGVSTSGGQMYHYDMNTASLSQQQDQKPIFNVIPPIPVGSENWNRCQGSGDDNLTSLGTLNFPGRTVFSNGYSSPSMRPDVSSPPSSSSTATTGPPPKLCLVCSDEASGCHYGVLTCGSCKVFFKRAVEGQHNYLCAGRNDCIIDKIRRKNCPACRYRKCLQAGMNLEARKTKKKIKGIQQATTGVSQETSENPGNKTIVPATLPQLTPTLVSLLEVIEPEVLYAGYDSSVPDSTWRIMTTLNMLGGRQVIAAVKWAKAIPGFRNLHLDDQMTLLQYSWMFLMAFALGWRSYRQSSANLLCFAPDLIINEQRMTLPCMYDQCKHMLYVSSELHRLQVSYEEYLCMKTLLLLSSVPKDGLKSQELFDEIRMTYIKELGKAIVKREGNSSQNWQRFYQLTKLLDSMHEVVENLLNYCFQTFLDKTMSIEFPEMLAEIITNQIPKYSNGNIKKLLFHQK
Method: Human Glucocorticoid Receptor (GR) Fluorescence Polarisation (FP) Binding Assay
The following is a description of a FP assay for measuring compound inhibition of labelled glucocorticoid binding to the human recombinant GR.
The binding affinity of test compounds was determined using a FP binding assay using human recombinant GR (PanVera P2812) and a fluorescent labelled glucocorticoid ligand (Fluorome GS Red) (PanVera P2894). The presence of inhibitors prevents the formation of a GS Red/GR complex resulting in a decrease in the measured polarisation value. The change in polarisation value in the presence of test compounds is used to calculate the binding affinity of the compound for GR.
This assay was performed in 384 well, black, round-bottom, polypropylene micro titre plates in a final volume of 20 μl. The assay contained 5 μl 1 nM GR (final concentration), 5 μl 0.5 nM Fluorome GS Red (final concentration) in the presence of 10 μl test compounds. Positive control wells (high polarisation) receive, 10 μl 2% (v: v) DMSO vehicle (1% (v/v) final concentration)+5 μl 1 nM GR and 5 μl 0.5 nM Fluorome GS Red. […] Assay blank background wells (used for normalisation) receive 15 μl 1× GS screening buffer+5 μl GR.
Compounds were prepared as solubilised solids at 10 mM in DMSO. On the day of assay, an 8 point half-log serial dilution (55 μl DMSO+25 μl compound solution) was prepared. A 1:50 dilution (1 μl compound solution+49 μl 1× GR screening buffer) was prepared for each compound. The compounds were prepared at 2× final assay concentration.
The plates were mixed and incubated for 4 hour at room temperature.
10× GR screening buffer (100 mM potassium phosphate pH 7.4, 200 mM Na2MoO4, 1 mM EDTA, 20% (v/v) DMSO). To prepare 1× GR screening buffer, combine 1 ml 10× GR screening buffer (PanVera P2814)+1 ml stabilising peptide (PanVera P2815)+7.95 ml 4° C. MQ water. Add 50 μl 1M DTT, vortex and place on ice until use.

[2] = test system: induction of TAT by dexamethasone in HepG2 cells; assay: HepG2 tyrosine aminotransferase (TAT) assay; type: cell-based, human
Method: Example 21. HepG2 Tyrosine Aminotransferase (TAT) Assay
Glucocorticoid mediated activation of TAT occurs by transactivation of glucocorticoid response elements in the TAT promoter by glucocorticoid receptor agonist complex.
TAT activity was measured as outlined in the literature by A. Ali et al., J. Med. Chem., 2004, 47, 2441-2452.
HepG2 cells were cultured using MEME media supplemented with 10% (v/v) foetal bovine serum; 2 mM L-glutamine and 1% (v/v) NEAA at 37° C., 5%/95% (v/v) CO2/air. The HepG2 cells were counted and adjusted to yield a density of 0.125×10^6 cells/ml in RPMI 1640 without phenol red, 10% (v/v) charcoal stripped FBS, 2 mM L-glutamine and seeded at 25,000 cells/well in 200 μl into 96 well, sterile, tissue culture micro titre plates, and incubated at 37° C., 5% CO2 for 24 hours
Growth media was removed and replaced with assay media {RPMI 1640 without phenol red, 2 mM L-glutamine+10 μM forskolin}. […] Compounds were serially half log diluted in 100% (v/v) dimethylsupfoxide from a 10 mM stock.
HepG2 cells were then lysed with 30 μl of cell lysis buffer containing a protease inhibitor cocktail for 15 minutes at 4° C. 155 μl of substrate mixture was then added containing 5.4 mM Tyrosine sodium salt, 10.8 mM alpha ketoglutarate and 0.06 mM pyridoxal 5′ phosphate in 0.1M potassium phosphate buffer (pH 7.4). After 2 hours incubation at 37° C. the reaction was terminated by the addition of 15 μl of 10M aqueous potassium hydroxide solution, and the plates incubated for a further 30 minutes at 37° C. The TAT activity product was measured by absorbance at […].
[compound] and fitting the data to a 4 parameter logistic equation.

[3] = human recombinant GR, fluorescence polarisation binding assay, read-out: GR binding
[4] = HepG2 cells, challenge of 100 nM dexamethasone, Ki from IC50 by Cheng and Prusoff equation

Row | SMILES | Ki [1] [nM] | Ki [2] [nM] | Ki [1, 3] [nM] | Ki [2, 4] [nM]
1 | O=C(c1cccs1)[C@]12Cc3cnn(-c4ccc(F)cc4)c3C=C1CCN(S(=O)(=O)c1ccc(C(F)(F)F)cc1)C2 [Example 1H, (R)-(1-(4-fluorophenyl)-6-((4-(trifluoromethyl)phenyl)sulfonyl)-4,4a,5,6,7,8-hexahydro-1H-pyrazolo[3,4-g]isoquinolin-4a-yl)(thiophen-2-yl)methanone] | < 0.5 | 20 to 100 | – | –
2 | Cc1cccc(S(=O)(=O)N2CCC3=Cc4c(cnn4-c4ccc(F)cc4)C[C@]3(C(=O)c3ncco3)C2)c1 [Example 1I, (R)-(1-(4-fluorophenyl)-6-(m-tolylsulfonyl)-4,4a,5,6,7,8-hexahydro-1H-pyrazolo[3,4-g]isoquinolin-4a-yl)(oxazol-2-yl)methanone] | – | – | < 0.5 | 20 to 100
3 | Cc1cccc(S(=O)(=O)N2CCC3=Cc4c(cnn4-c4ccc(F)cc4)C[C@]3(C(=O)c3ncccn3)C2)c1 [Example 1J, (R)-(1-(4-fluorophenyl)-6-(m-tolylsulfonyl)-4,4a,5,6,7,8-hexahydro-1H-pyrazolo [3,4-g]isoquinolin-4a-yl)(pyrimidin-2-yl)methanone] | – | – | < 0.5 | 20 to 100
4 | COc1ccnc(C(=O)[C@]23Cc4cnn(-c5ccc(F)cc5)c4C=C2CCN(S(=O)(=O)c2cc(F)cc(F)c2)C3)c1 [Example 1K, (R)-(6-((3,5-difluorophenyl)sulfonyl)-1-(4-fluorophenyl)-4,4a,5,6,7,8-hexahydro-1H-pyrazolo[3,4-g]isoquinolin-4a-yl)(4-methoxypyridin-2-yl)methanone] | – | – | < 0.5 | < 20
5 | CCc1ccnc(C(=O)[C@]23Cc4cnn(-c5ccc(F)cc5)c4C=C2CCN(S(=O)(=O)c2cc(F)c(F)c(F)c2)C3)c1 [Example 1L, (R)-(4-ethylpyridin-2-yl)(1-(4-fluorophenyl)-6-((3,4,5-trifluorophenyl)sulfonyl)-4,4a,5,6,7,8-hexahydro-1H-pyrazolo[3,4-g]isoquinolin-4a-yl)methanone] | – | – | < 0.5 | < 20
6 | COc1ccnc(C(=O)[C@]23Cc4cnn(-c5ccc(F)cc5)c4C=C2CCN(S(=O)(=O)c2cc(F)c(F)c(F)c2)C3)c1 [Example 1M, (R)-(1-(4-fluorophenyl)-6-((3,4,5-trifluorophenyl)sulfonyl)-4,4a,5,6,7,8-hexahydro-1H-pyrazolo[3,4-g]isoquinolin-4a-yl)(4-methoxypyridin-2-yl)methanone] | – | – | < 0.5 | < 20
7 | O=C(c1ccccn1)[C@]12Cc3cnn(-c4ccc(F)cc4)c3C=C1CCN(S(=O)(=O)c1ccc(F)cc1)C2 [Example 2, (R)-(1-(4-fluorophenyl)-6-((4-fluorophenyl)sulfonyl)-4,4a,5,6,7,8-hexahydro-1H-pyrazolo[3,4-g]isoquinolin-4a-yl)(pyridin-2-yl)methanone] | < 0.5 | < 20 | – | –
8 | O=C(c1nccs1)[C@]12Cc3cnn(-c4ccc(F)cc4)c3C=C1CCN(S(=O)(=O)Cc1cccc(F)c1)C2 [Example 2A, (R)-(6-((3-fluorobenzyl)sulfonyl)-1-(4-fluorophenyl)-4,4a,5,6,7,8-hexahydro-1H-pyrazolo[3,4-g]isoquinolin-4a-yl)(thiazol-2-yl) methanone] | – | – | < 0.5 | ≥ 100
9 | Cc1ccccc1S(=O)(=O)N1CCC2=Cc3c(cnn3-c3ccc(F)cc3)C[C@]2(C(=O)c2ccccn2)C1 [Example 2C, (R)-(1-(4-fluorophenyl)-6-(o-tolylsulfonyl)-4,4a,5,6,7,8-hexahydro-1H-pyrazolo [3,4-g]isoquinolin-4a-yl)(pyridin-2-yl)methanone] | < 0.5 | – | – | < 20
10 | CCc1ccc(S(=O)(=O)N2CCC3=Cc4c(cnn4-c4ccc(F)cc4)C[C@]3(C(=O)c3ccccn3)C2)cc1 [Example 2D, (R)-(6-((4-ethylphenyl)sulfonyl)-1-(4-fluorophenyl)-4,4a,5,6,7,8-hexahydro-1H-pyrazolo[3,4-g]isoquinolin-4a-yl)(pyridin-2-yl)methanone] | – | – | < 0.5 | < 20
